US12076307B2, “Compositions for prevention or treatment of acute radiation syndrome and other radiation exposure” (priority 2017, dated 2024)
Where “and” joins values, the source holds several entries; their conditions need not be identical. Equal entries are not always repeated. Marks after values point to notes of the source that are not given here.

What was measured:
[1] = test system: Balb/c mice, 1 Gy gamma radiation + 5-Fluorouracil + tongue scratch; experiment: Radiation-induced oral mucositis ARS model: survival, mucositis, blood neutrophils; type: in vivo, mouse; settings: PLAG 250 mg/kg/day oral
Description: In order to further confirm the effect of PLAG on the acute radiation syndrome, an animal model of radiation-induced oral mucositis was prepared and tested as an acute radiation syndrome animal model with severer conditions than those in Example 1 above. First, Balb/c mice (8-week-old female) were purchased from Koatech (Republic of Korea) and maintained in a specific pathogen-free (SPF) environment to establish a radiation-induced oral mucositis model. In this example, first group of oral mucositis induced group (negative control) was compared to the second group where PLAG was orally administered to animals with induced oral mucositis.
Specifically, mice were exposed to 1 Gy whole body gamma radiation and scars of 0.2 cm on the mice tongue were scratched at 0, 7, 10 and 16 days with the same force and depth using an 18 gauge needle. On day 2 post-irradiation, 5-Fluorouracil (50 mg/kg/day) was intraperitoneally administered and PLAG was administered orally at 250 mg/kg/day for 18 days (Table 2).
Oral mucositis level was determined by counting the ulcer formation and edema of the tongue and the incidence of wound atrophy, and calculating the score of oral mucositis by a total of 5 blinded observers. On the 7th and 10th day, the blood of the experimental groups was collected and the number of neutrophils in the blood was measured by measuring the Complete Blood Count (CBC) using a Mindray BC-5300 auto hematology analyzer (Shenzhen Mindray Bio-medical Electronics, China).

CXCL8 = CXCL8 release in HaCaT cells treated with CM or rhHMGB1; type: cell-based, human
Description: An additional experiment was tested for assessing whether EC-18 treatment leads to early termination of the RIPK1/3-MLKL-mediated downstream necroptosis pathway. This was performed by using DAMP-containing conditioned media (CM) harvested from HaCaT cells, irradiated for 48 hrs, and analyzed after 2 or 72 hrs of EC-18 treatment. […] To further confirm that DAMPs in CM contribute to the activation of a necroptosis signaling pathway in a paracrine manner, recombinant human HMGB1 (rhHMGB1) was treated directly to the normal HaCaT cells. The rhHMGB1 elevated the phosphorylation of RIPK1/3 and MLKL after 2 hrs and subsequently released HMGB1 and HSP90 (FIGS. 35C-35D). To evaluate whether EC-18 mitigates the activation of RIPK1/3 and MLKL, 10 or 100 μg/mL of EC-18 was treated before the addition of CM or rhHMGB1. As a result, EC-18 lowered the phosphorylation of RIPK/3 and MLKL in both CM- and rhHMGB1-treated cells after 2 hrs. Release of HMGB1 and Hsp90 was also subsided by EC-18 after 72 hrs of post addition of CM or rhHMGB1 to the cells (FIGS. 35A-35D). TLR4-induced necroptosis signaling pathway caused by DAMP release produces cytokines, such as CXCL8, a chemotactic cytokine for neutrophils. As CXCL8 increases upon tissue damage, it was measured in cells treated with CM or rhHMGB1 as a measure of inflammation. CXCL8 of CM from cells treated with chemo and radiotherapy was used for this evaluation. […] Moreover, rhHMGB1 increased the production of CXCL8, modulated by EC-18.

[2] = Plasma protein binding by rapid equilibrium dialysis, rat; settings: Rats, 4 hrs RED, n=3
Description: The plasma protein binding ability of EC-18 was tested by rapid equilibrium dialysis (RED). The chamber separated by a dialysis tubing membrane (cut-off: 8 kDa) was filled on one side with rat or human plasma mixed with phosphate buffer and on the other side with rat or human plasma mixed with the test or standard reference material (test concentration: 1 μM).

OAT3 = target: T1, OAT3 (Homo sapiens, UniProt Q8TCC7); experiment: Drug transporter inhibition, OAT3; type: in vitro ADME; settings: 100 nM [3H] estrone-3-sulfate; transfected HEK-293 cells
T1 construct: expressed in transfected cells; host or cells: HEK-293
T1 sequence (Q8TCC7 whole entry, species assumed): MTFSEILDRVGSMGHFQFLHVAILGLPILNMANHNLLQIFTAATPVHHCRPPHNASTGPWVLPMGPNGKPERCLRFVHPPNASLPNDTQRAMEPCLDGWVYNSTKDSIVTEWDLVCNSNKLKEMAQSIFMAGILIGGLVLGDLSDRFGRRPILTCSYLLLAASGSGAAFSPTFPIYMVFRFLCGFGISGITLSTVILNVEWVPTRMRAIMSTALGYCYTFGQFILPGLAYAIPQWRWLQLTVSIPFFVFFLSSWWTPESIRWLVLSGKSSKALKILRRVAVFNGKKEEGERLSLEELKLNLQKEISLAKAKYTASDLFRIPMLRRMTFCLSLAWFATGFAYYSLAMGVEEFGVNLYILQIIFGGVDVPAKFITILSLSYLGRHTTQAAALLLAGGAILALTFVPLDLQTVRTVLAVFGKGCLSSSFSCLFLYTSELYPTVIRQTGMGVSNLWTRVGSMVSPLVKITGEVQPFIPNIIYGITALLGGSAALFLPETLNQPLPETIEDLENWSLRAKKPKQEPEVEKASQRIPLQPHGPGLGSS
Description: This study examined the potential of EC-18 to interact with the transporter proteins that have been known to be involved in the absorption of commercially available drugs. EC-18 was pre-incubated with HEK-293 cells and LLC-PK1 cells that were transfected with the genes of most drug transporters as follows: OATP1B1, OATP1B3, OAT1, OAT3 and OCT2, and BCRP and P-gp, respectively.

ICR mouse = experiment: Micronucleus assay; type: in vivo; settings: Oral; Single; 0, 500, 1000, 2000 mg/kg
Text: Various toxicology studies have been performed. All studies were GLP-compliant unless otherwise noted.

Balb/c mice, 6.11 Gy TBI = experiment: Dose optimization / pharmacodynamics study in LD70/30 ARS model (40 mice per group)
[3] = 6.11 Gy, EC-18 50 mg/kg daily from day 1, 30 days
[4] = 6.11 Gy, EC-18 100 mg/kg daily from day 1, 30 days
[5] = 6.11 Gy, EC-18 250 mg/kg daily from day 1, 30 days
[6] = 6.11 Gy, EC-18 500 mg/kg daily from day 1, 30 days

## CCCCC/C=C\C/C=C\CCCCCCCC(=O)OC(COC(C)=O)COC(=O)CCCCCCCCCCCCCCC (stereo not drawn) [EC-18, 1-palmitoyl-2-linoleoyl-3-acetylglycerol]
[1]
  oral mucositis score: significantly decreased
  visually confirmed oral mucositis levels vs non-PLAG-treated group: significantly reduced
[1]; days 7 and 10
  neutrophil number in blood: significantly increased
[1]; day 18, n=7
  survival rate: 85%
CXCL8; CM-treated cells
  CXCL8 level: decreased in a dose-dependent manner
CXCL8; rhHMGB1-treated cells
  CXCL8 production: modulated
[2]; 1 μM
  Plasma Protein Binding Rate: 98.8 ± 0.5%
[2]; rat, plasma, Plasma Protein Binding Rate
  fraction unbound at 4 hrs, 1 μM: < 0.01
OAT3
  IC50: > 32 µM
ICR mouse
  micronucleus induction in mouse bone marrow cells: EC-18 does not affect
Balb/c mice, 6.11 Gy TBI; 25 mg/kg (so in the source)
  improvement in survival vs control group: 2 fold
Balb/c mice, 6.11 Gy TBI; 250 mg/kg daily, 24-hr delayed
  improvement in survival vs control group: 4 fold
Balb/c mice, 6.11 Gy TBI; 250 mg/kg, 30 days of observation
  γ-radiation-induced reduction of RBC and hemoglobin: significantly prevented
Balb/c mice, 6.11 Gy TBI; 250 mg/kg, from 15 days to the last day of observation
  mean PLT count vs control cohort: higher
Balb/c mice, 6.11 Gy TBI; 500 mg/kg daily, 24-hr delayed
  improvement in survival vs control group: ~4 fold
Balb/c mice, 6.11 Gy TBI; 6.11 Gy, EC-18 50 mg/kg
  Survival time of decedents, Median: 25.5 days
Balb/c mice, 6.11 Gy TBI; [3]
  No. of mice that survived/total: 24/40
  Survivability / Survival: 60%
Balb/c mice, 6.11 Gy TBI; 6.11 Gy, EC-18 50 mg/kg, 50 mg/kg
  Survival time of decedents, Mean ± SEM: 24.3 days and 24.3 ± 1.2 days
Balb/c mice, 6.11 Gy TBI; 6.11 Gy, EC-18 100 mg/kg
  Survival time of decedents, Mean ± SEM: 22.8 ± 1.7 days
  Survival time of decedents, Median: 26.0 days
Balb/c mice, 6.11 Gy TBI; [4]
  No. of mice that survived/total: 27/40
  Survival: 67.5%
Balb/c mice, 6.11 Gy TBI; 6.11 Gy, EC-18 250 mg/kg
  Survival time of decedents, Median: 27.5 days
Balb/c mice, 6.11 Gy TBI; [5]
  No. of mice that survived/total: 34/40
  Survivability / Survival: 85%
Balb/c mice, 6.11 Gy TBI; 6.11 Gy, EC-18 250 mg/kg, 250 mg/kg
  Survival time of decedents, Mean ± SEM: 27.8 days and 27.8 ± 0.4 days
Balb/c mice, 6.11 Gy TBI; 6.11 Gy, EC-18 500 mg/kg
  Survival time of decedents, Median: 19.5 days
Balb/c mice, 6.11 Gy TBI; [6]
  No. of mice that survived/total: 34/40
  Survivability / Survival: 85%
Balb/c mice, 6.11 Gy TBI; 6.11 Gy, EC-18 500 mg/kg, 500 mg/kg
  Survival time of decedents, Mean ± SEM: 20.3 days and 20.3 ± 1.5 days
Balb/c mice, 6.11 Gy TBI; 50 and 250 mg/kg, dose-dependent
  radiation-induced depletion of ANC (and WBC): significantly attenuated
Balb/c mice, 6.11 Gy TBI; EC-18 50 mg/kg
  Mean of the First Day Of Anemia (HGB <12 g/dL) (±SE): 10.4 ± 0.7 (5-15)
  Mean of the First Day of Neutropenia (ANC <500 cells/μL) (±SE): 3.0 ± 0.0 (3-3)
  Mean of the First Day of Thrombocytopenia (PLT <100 × 10^3 cells/μL) (±SE): 10.0 ± 0.0 (10-10)
Balb/c mice, 6.11 Gy TBI; EC-18 50 mg/kg, 50 mg/kg
  Mean of the First Day of SN (ANC <100 cells/μL) (±SE): 5.7 ± 0.6 (3-10) days
Balb/c mice, 6.11 Gy TBI; EC-18 50 mg/kg, n=17
  Mean Duration of Anemia in Days (±SE): 15.0 ± 0.8^b (7-19) Days
Balb/c mice, 6.11 Gy TBI; EC-18 50 mg/kg, n=19
  Mean Duration of Neutropenia in Days (±SE): 21.0 ± 0.7^b (17-24) Days
  Mean Duration of SN in Days (±SE): 11.4 ± 0.9^b (5-19) Days
  Mean Duration of Thrombocytopenia in Days (±SE): 12.8 ± 0.8^b (7-17) Days
Balb/c mice, 6.11 Gy TBI; EC-18 100 mg/kg
  Mean of the First Day Of Anemia (HGB <12 g/dL) (±SE): 11.0 ± 0.5 (5-15)
  Mean of the First Day of Neutropenia (ANC <500 cells/μL) (±SE): 3.0 ± 0.0 (3-3)
  Mean of the First Day of Thrombocytopenia (PLT <100 × 10^3 cells/μL) (±SE): 10.0 ± 0.0 (10-10)
Balb/c mice, 6.11 Gy TBI; EC-18 100 mg/kg, 100 mg/kg
  Mean of the First Day of SN (ANC <100 cells/μL) (±SE): 5.1 ± 0.5 (3-10) days
Balb/c mice, 6.11 Gy TBI; EC-18 100 mg/kg, n=17
  Mean Duration of Anemia in Days (±SE): 15.5 ± 0.5^c (12-20) Days
Balb/c mice, 6.11 Gy TBI; EC-18 100 mg/kg, n=18
  Mean Duration of Neutropenia in Days (±SE): 23.9 ± 0.5^c (19-27) Days
  Mean Duration of SN in Days (±SE): 13.4 ± 1.3^c (7-25) Days
  Mean Duration of Thrombocytopenia in Days (±SE): 14.7 ± 1.0^c (5-20) Days
Balb/c mice, 6.11 Gy TBI; EC-18 250 mg/kg
  Mean of the First Day Of Anemia (HGB <12 g/dL) (±SE): 12.1 ± 0.5 (10-15)
  Mean of the First Day of Neutropenia (ANC <500 cells/μL) (±SE): 3.2 ± 0.1 (3-5)
  Mean of the First Day of Thrombocytopenia (PLT <100 × 10^3 cells/μL) (±SE): 10.1 ± 0.1 (10-12)
Balb/c mice, 6.11 Gy TBI; EC-18 250 mg/kg, 250 mg/kg
  Mean of the First Day of SN (ANC <100 cells/μL) (±SE): 8.5 ± 1.0 (3-17) days
Balb/c mice, 6.11 Gy TBI; EC-18 250 mg/kg, n=19
  Mean Duration of Anemia in Days (±SE): 9.7 ± 0.7^d (5-17) Days
Balb/c mice, 6.11 Gy TBI; EC-18 250 mg/kg, n=20
  Mean Duration of Neutropenia in Days (±SE): 21.2 ± 0.7^d (17-27) Days
  Mean Duration of SN in Days (±SE): 7.2 ± 0.7^d (2-12) Days
  Mean Duration of Thrombocytopenia in Days (±SE): 6.7 ± 0.5^d (3-12) Days
Balb/c mice, 6.11 Gy TBI; EC-18 500 mg/kg
  Mean of the First Day Of Anemia (HGB <12 g/dL) (±SE): 12.2 ± 0.5 (7-15)
  Mean of the First Day of Neutropenia (ANC <500 cells/μL) (±SE): 3.4 ± 0.2 (3-5)
  Mean of the First Day of Thrombocytopenia (PLT <100 × 10^3 cells/μL) (±SE): 10.1 ± 0.1 (10-12)
Balb/c mice, 6.11 Gy TBI; EC-18 500 mg/kg, 500 mg/kg
  Mean of the First Day of SN (ANC <100 cells/μL) (±SE): 7.0 ± 0.9 (3-20) days
Balb/c mice, 6.11 Gy TBI; EC-18 500 mg/kg, n=19
  Mean Duration of Anemia in Days (±SE): 14.0 ± 0.8^e (7-20) Days
  Mean Duration of Neutropenia in Days (±SE): 21.9 ± 0.6^e (17-27) Days
  Mean Duration of SN in Days (±SE): 9.6 ± 0.6^e (2-14) Days
  Mean Duration of Thrombocytopenia in Days (±SE): 12.3 ± 0.7^e (7-20) Days
Balb/c mice, 6.11 Gy TBI; mouse, in vivo
  severity of the nadir: diminished
  timing of nadirs for neutrophils, PLTs, red blood cells, hemoglobin: unchanged
